Source: the NIST ThermoML archive (doi:10.1021/acs.jced.7b00466)
Values joined by “and” are separate entries in the source; they are usually repeats but may differ in a detail not shown here. Equal entries are not always repeated.

Assay: an = ratio of the nth substance listed
Details: for viscosity / speed of sound / mass density: 102 kPa, Liquid; for viscosity: Concentric cylinders viscometry; for speed of sound: Frequency=3 MHz, Sing-around technique in a fixed-path interferometer; for mass density: Vibrating tube method; for surface tension liquid-gas: 294.5 K, Pendant drop shape

CCCCC1CCCCC1 [butylcyclohexane] + CCCCCCCCCCCC
Details | mass density | speed of sound | viscosity
293.15 K, a2 = 0.3332 | 783.9 kg/m3 | 1317.5 m/s and 1317.3 m/s | 1.34 mPa·s
293.15 K, a2 = 1 | 770.6 kg/m3 | 1309 m/s and 1308.8 m/s | 1.38 mPa·s
293.15 K, a2 = 2.995 | 759 kg/m3 | 1302.4 m/s | 1.44 mPa·s
293.15 K, a2 = 3.001 | 759 kg/m3 | 1302.6 m/s | 1.42 mPa·s
303.15 K, a2 = 0.3332 | 776.5 kg/m3 | 1278.1 m/s and 1278.4 m/s | 1.13 mPa·s
303.15 K, a2 = 1 | 763.3 kg/m3 | 1270.4 m/s and 1270.1 m/s | 1.17 mPa·s
303.15 K, a2 = 2.995 | 751.7 kg/m3 | 1264 m/s | 1.22 mPa·s
303.15 K, a2 = 3.001 | 751.7 kg/m3 | 1264.3 m/s | 1.2 mPa·s
313.15 K, a2 = 0.3332 | 769.1 kg/m3 | 1239.7 m/s and 1239.9 m/s | 0.972 mPa·s and 0.974 mPa·s
313.15 K, a2 = 1 | 755.9 kg/m3 | 1232.3 m/s and 1232 m/s | 1.01 mPa·s and 1 mPa·s
313.15 K, a2 = 2.995 | 744.4 kg/m3 | 1226.2 m/s | 1.04 mPa·s
313.15 K, a2 = 3.001 | 744.4 kg/m3 | 1226.5 m/s | 1.02 mPa·s
323.15 K, a2 = 0.3332 | 761.6 kg/m3 | 1201.8 m/s and 1202 m/s | 0.845 mPa·s and 0.846 mPa·s
323.15 K, a2 = 1 | 748.5 kg/m3 | 1194.8 m/s and 1194.6 m/s | 0.88 mPa·s and 0.865 mPa·s
323.15 K, a2 = 2.995 | 737.1 kg/m3 | 1189 m/s | 0.896 mPa·s
323.15 K, a2 = 3.001 | 737.1 kg/m3 | 1189.3 m/s | 0.883 mPa·s
333.15 K, a2 = 0.3332 | 754.1 kg/m3 | 1164.8 m/s and 1164.7 m/s | 0.743 mPa·s and 0.741 mPa·s
333.15 K, a2 = 1 | 741.1 kg/m3 | 1158.1 m/s and 1157.9 m/s | 0.774 mPa·s and 0.757 mPa·s
333.15 K, a2 = 2.995 | 729.7 kg/m3 | 1152.5 m/s | 0.788 mPa·s
333.15 K, a2 = 3.001 | 729.7 kg/m3 | 1152.9 m/s | 0.77 mPa·s
343.15 K, a2 = 0.3332 | 746.5 kg/m3 | – | 0.656 mPa·s
343.15 K, a2 = 1 | 733.6 kg/m3 and 733.7 kg/m3 | – | 0.686 mPa·s and 0.668 mPa·s
343.15 K, a2 = 2.995 | 722.5 kg/m3 | – | 0.699 mPa·s
343.15 K, a2 = 3.001 | 722.2 kg/m3 | – | 0.678 mPa·s

Details | surface tension liquid-gas [mN/m]
a2 = 0.3332 | 26.1
a2 = 0.3335 | 26.1
a2 = 0.9998 | 25.8
a2 = 1 | 25.6
a2 = 2.997 | 25.4
a2 = 3.001 | 25.3

CCCCC1CCCCC1 [butylcyclohexane] + CCCCCCCCCCCCCCCC
Details | mass density [kg/m3] | speed of sound [m/s] | viscosity [mPa·s]
293.15 K, a2 = 0.25 | 791.29 | 1334.4 | 1.68
293.15 K, a2 = 0.3333 | 789.5 | 1335.5 | 1.78
293.15 K, a2 = 0.3335 | 789.61 | 1335.2 | 1.78
293.15 K, a2 = 0.6666 | 785.19 | – | 2.08
293.15 K, a2 = 0.6667 | – | 1339.5 | –
293.15 K, a2 = 0.9992 | 782.68 | 1342.9 | 2.29
293.15 K, a2 = 0.9997 | 782.68 | 1342.9 | 2.29
293.15 K, a2 = 1.5 | 780.35 | 1345.6 | 2.5
293.15 K, a2 = 2.997 | 777.44 | 1349.7 | 2.84
293.15 K, a2 = 3.001 | 777.44 | 1350 | 2.84
293.15 K, a2 = 3.998 | 776.54 | 1350.8 | 2.96
303.15 K, a2 = 0.25 | 784.02 | 1295.9 | 1.4
303.15 K, a2 = 0.3333 | 782.27 | 1297.1 | 1.5
303.15 K, a2 = 0.3335 | 782.37 | 1296.8 | 1.49
303.15 K, a2 = 0.6666 | 778.07 | – | 1.71
303.15 K, a2 = 0.6667 | – | 1301.7 | –
303.15 K, a2 = 0.9992 | 775.6 | 1305.2 | 1.87
303.15 K, a2 = 0.9997 | 775.6 | 1305.2 | 1.87
303.15 K, a2 = 1.5 | 773.33 | 1308.2 | 2.04
303.15 K, a2 = 2.997 | 770.54 | 1312.4 | 2.29
303.15 K, a2 = 3.001 | 770.45 | 1312.7 | 2.29
303.15 K, a2 = 3.998 | 769.57 | 1313.6 | 2.37
313.15 K, a2 = 0.25 | 776.71 | 1257.8 | 1.19
313.15 K, a2 = 0.3333 | 775.01 | 1259.3 | 1.26
313.15 K, a2 = 0.3335 | 775.12 | 1259.1 | 1.26
313.15 K, a2 = 0.6666 | 770.92 | – | 1.44
313.15 K, a2 = 0.6667 | – | 1264.4 | –
313.15 K, a2 = 0.9992 | 768.51 | 1268.2 | 1.56
313.15 K, a2 = 0.9997 | 768.51 | 1268.2 | 1.56
313.15 K, a2 = 1.5 | 766.29 | 1271.3 | 1.69
313.15 K, a2 = 2.997 | 763.47 | 1275.9 | 1.88
313.15 K, a2 = 3.001 | 763.47 | 1276 | 1.88
313.15 K, a2 = 3.998 | 762.61 | 1277 | 1.95
323.15 K, a2 = 0.25 | 769.38 | 1220.2 | 1.03
323.15 K, a2 = 0.3333 | 767.73 | 1222.1 | 1.08
323.15 K, a2 = 0.3335 | 767.83 | 1222 | 1.08
323.15 K, a2 = 0.6667 | 763.75 | 1227.5 | 1.23
323.15 K, a2 = 0.9992 | 761.41 | 1231.8 | 1.33
323.15 K, a2 = 0.9997 | 761.41 | 1231.8 | 1.33
323.15 K, a2 = 1.5 | 759.24 | 1234.9 | 1.42
323.15 K, a2 = 2.997 | 756.48 | 1239.9 | 1.58
323.15 K, a2 = 3.001 | 756.48 | 1240.1 | 1.58
323.15 K, a2 = 3.998 | 755.63 | 1240.9 | 1.62
333.15 K, a2 = 0.25 | 762.02 | 1183.2 | 0.898
333.15 K, a2 = 0.3333 | 760.42 | 1185.7 | 0.942
333.15 K, a2 = 0.3335 | 760.52 | 1185.6 | 0.942
333.15 K, a2 = 0.6667 | 756.56 | 1191.2 | 1.06
333.15 K, a2 = 0.9992 | 754.28 | 1196.2 | 1.14
333.15 K, a2 = 0.9997 | 754.28 | 1196.2 | 1.14
333.15 K, a2 = 1.5 | 752.17 | 1199.1 | 1.22
333.15 K, a2 = 2.997 | 749.48 | 1204.7 | 1.34
333.15 K, a2 = 3.001 | 749.49 | 1205 | 1.34
333.15 K, a2 = 3.998 | 748.65 | 1205.4 | 1.38
343.15 K, a2 = 0.25 | 754.6 | – | 0.789
343.15 K, a2 = 0.3333 | 753.1 | – | 0.827
343.15 K, a2 = 0.3335 | 753.2 | – | 0.821
343.15 K, a2 = 0.6667 | 749.4 | – | 0.926
343.15 K, a2 = 0.9992 | 747.2 | – | 0.991
343.15 K, a2 = 0.9997 | 747.2 | – | 0.991
343.15 K, a2 = 1.5 | 745.1 | – | 1.06
343.15 K, a2 = 2.997 | 742.5 | – | 1.16
343.15 K, a2 = 3.001 | 742.5 | – | 1.16
343.15 K, a2 = 3.998 | 741.4 | – | 1.19

Details | surface tension liquid-gas [mN/m]
a2 = 0.25 | 26.6
a2 = 0.3333 | 26.7
a2 = 0.3335 | 26.9
a2 = 0.6667 | 26.9
a2 = 0.9992 | 26.9
a2 = 0.9997 | 26.9
a2 = 1.5 | 26.9
a2 = 2.997 | 27.1
a2 = 3.001 | 27
a2 = 3.998 | 27
